Laboratory results: ChEMBL document CHEMBL3580614, “Hypermongones A-J, Rare Methylated Polycyclic Polyprenylated Acylphloroglucinols from the Flowers of Hypericum monogynum” (J Nat Prod, 2015)

Columns and labels:
RAW264.7 [1] = experiment: Antiinflammatory activity in mouse RAW264.7 cells assessed as inhibition of LPS-induced NO production incubated for 2 hrs prior to LPS-challenge measured after 24 hrs by Greiss assay; format: functional, cell-based
RAW264.7 [2] = experiment: Cytotoxicity against mouse RAW264.7 cells assessed as cell viability up to 100 uM; format: cell-based

Row | Structure (SMILES) | IC50 (RAW264.7 [1]) [µM] | Activity (RAW264.7 [2])
1 | CC[C@H](C)C(=O)[C@@]12C(=O)C3=C(O[C@H](C(C)(C)O)C3)[C@@](C)(C[C@H](CC=C(C)C)[C@@]1(C)CCC=C(C)C)C2=O | 18.7 | Non-toxic
2 | CC(C)=CCC[C@]1(C)[C@@H](CC=C(C)C)C[C@]2(C)C(=O)C3=C(O[C@H](C(C)(C)O)C3)[C@@]1(C(=O)C(C)C)C2=O | > 50 | Non-toxic
3 | CC(C)=CCC[C@]1(C)[C@@H](CC=C(C)C)C[C@]2(C)C(=O)C3=C(O[C@@H](C(C)(C)O)C3)[C@@]1(C(=O)C(C)C)C2=O | 27.3 | Non-toxic
4 | CNC(=N)NCCC[C@H](N)C(=O)O [TILARGININE] | 39.2 | Non-toxic
5 | CC[C@H](C)C(=O)[C@]12C(=O)[C@](C)(C[C@H](CC=C(C)C)[C@@]1(C)CCC=C(C)C)C(=O)C1=C2O[C@H](C(C)(C)O)C1 | 23.7 | Non-toxic

These reach a lower IC50 (RAW264.7 [1]). Values come first.

Row | IC50 (RAW264.7 [1]) [µM] | Structure (SMILES) | Activity (RAW264.7 [2])
6 | 15.2 | CC[C@H](C)C(=O)[C@@]12C(=O)C3=C(O[C@@H](C(C)(C)O)C3)[C@@](C)(C[C@H](CC=C(C)C)[C@@]1(C)CCC=C(C)C)C2=O | Non-toxic
7 | 14.5 | CC[C@H](C)C(=O)[C@]12C(=O)[C@](C)(C[C@H](CC=C(C)C)[C@@]1(C)CCC=C(C)C)C(=O)C1=C2O[C@@H](C(C)(C)O)C1 | Non-toxic
8 | 9.5 | CC(C)=CCC[C@]1(C)[C@@H](CC=C(C)C)C[C@@]2(C)C(=O)[C@]1(C(=O)C(C)C)C(=O)C1=C2O[C@H](C(C)(C)O)C1 | Non-toxic
9 | 14.9 | CC(C)=CCC[C@]1(C)[C@@H](CC=C(C)C)C[C@@]2(C)C(=O)[C@]1(C(=O)C(C)C)C(=O)C1=C2O[C@@H](C(C)(C)O)C1 | Non-toxic
